Columns and labels:
[1] = target: T1, OE19 (3A1) (Homo sapiens, UniProt P30838); assay: Cellular ALDEFLUOR assay in OE19 cells (preferential ALDH3A1 expression)
T1 sequence (P30838 1-453): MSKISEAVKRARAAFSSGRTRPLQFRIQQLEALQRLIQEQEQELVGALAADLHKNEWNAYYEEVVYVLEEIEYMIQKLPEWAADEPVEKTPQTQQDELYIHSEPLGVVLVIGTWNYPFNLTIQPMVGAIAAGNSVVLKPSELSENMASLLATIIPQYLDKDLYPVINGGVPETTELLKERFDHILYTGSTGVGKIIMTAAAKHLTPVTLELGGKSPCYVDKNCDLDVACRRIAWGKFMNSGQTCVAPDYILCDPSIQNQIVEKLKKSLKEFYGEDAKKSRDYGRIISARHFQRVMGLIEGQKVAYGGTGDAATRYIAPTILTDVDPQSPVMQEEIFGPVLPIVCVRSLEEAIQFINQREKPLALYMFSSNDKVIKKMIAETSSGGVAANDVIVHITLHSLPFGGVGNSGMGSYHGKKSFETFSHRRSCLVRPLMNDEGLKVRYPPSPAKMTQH

[2] = target: T2, Human ALDH3A1 (Homo sapiens, UniProt P30838); assay: ALDH3A1 biochemical assay (benzaldehyde/NADP+, diaphorase-resazurin readout, 1,536-well)
T2 sequence (P30838 1-453): T1 sequence (P30838 1-453)

[3] = Table S5, biochemical curve class
[4] = Table S4, biochemical curve class

| AC50 [1] [µM] | Cell_Efficacy ([1]; Table S5, OE19 cells) | Cell_CC-v2 ([1]; Table S5, cellular curve class) | AC50 [2] [µM] | Efficacy ([2]; Table S5, biochemical) | CC-v2 [2, 3] | Cell_Efficacy ([1]; Table S4, OE19 cells) | Cell_CC-v2 ([1]; Table S4, cellular curve class) | Efficacy ([2]; Table S4, biochemical) | CC-v2 [2, 4] | activity in the biochemical assay ([2]; in words) | Compound |
| --- | --- | --- | --- | --- | --- | --- | --- | --- | --- | --- | --- |
| 0.2 | -88.67 | -1.1 | 0.447 | -62.88 | -1.2 |  |  |  |  |  | C[S+](=O)([O-])c1ccc(CNC(=O)c2csc(N3CCN(c4cccc(C(F)(F)F)c4)CC3)n2)cc1 [NCGC01407818-01] |
| 9.88 |  |  | 3.64 |  |  | -70.97 | -1.2 | -76.22 | -1.2 |  | COc1cc(N2CCN(c3nc(C(=O)NCc4cccc(C)c4)cs3)CC2)cc(OC)c1OC [NCGC01211386-01] |
| 0.5 |  |  | 0.36 |  |  | -115.29 | -2.1 | -84.72 | -1.1 |  | Cc1cccc(CNC(=O)c2csc(N3CCN(c4cccc([N+](=O)[O-])c4)CC3)n2)c1 [Compound 8] |
| 0.2 |  |  | 0.41 |  |  | -86.93 | -1.3 | -94.28 | -1.1 |  | Cc1cccc(CNC(=O)c2csc(N3CCN(c4cccc(Br)c4)CC3)n2)c1 [Compound 10] |
| 0.683 | -111.50 | -2.1 | 0.02 | -100.00 | -1.1 |  |  |  |  |  | CC(=O)c1ccc(CNC(=O)c2csc(N3CCN(c4cccc(C(F)(F)F)c4)CC3)n2)cc1 [NCGC01397292-01] |
| 1.92 | -76.04 | -1.1 | 0.0251 | -96.99 | -1.1 |  |  |  |  |  | CC1(C)Oc2ccc(CNC(=O)c3csc(N4CCN(c5cccc(C(F)(F)F)c5)CC4)n3)cc2O1 [NCGC01397390-01] |
| 4.95 |  |  | 1.02 |  |  | -89.89 | -1.1 | -98.80 | -1.1 |  | Cc1cccc(CNC(=O)c2csc(N3CCN(c4ccccc4F)CC3)n2)c1 [NCGC01211127-01] |
| 7.85 |  |  | 0.91 |  |  | -96.01 | -1.1 | -85.97 | -1.1 |  | COc1ccc(F)c(N2CCN(c3nc(C(=O)NCc4cccc(C)c4)cs3)CC2)c1 [NCGC01211189-01] |
| 0.609 | -99.51 | -1.3 | 0.0282 | -95.28 | -1.1 |  |  |  |  |  | O=C(NCc1ccc(C(F)(F)F)c(Cl)c1)c1csc(N2CCN(c3cccc(C(F)(F)F)c3)CC2)n1 [NCGC01407914-01] |
|  | 0.00 | 5 | 0.398 | -53.79 | -1.2 |  |  |  |  |  | O=C(NCc1ccc2c(c1)CNC2=O)c1csc(N2CCN(c3cccc(C(F)(F)F)c3)CC2)n1 [NCGC01397290-02] |
| 0.88 |  |  | 40.8 |  |  | -43.91 | -1.2 | -38.00 | -2.2 |  | Cc1cccc(CNC(=O)c2csc(N3CCN(c4ccc(C(N)=O)cc4)CC3)n2)c1 [NCGC01211194-01] |
| 0.0431 | -79.42 | -1.1 | 0.0141 | -100.33 | -1.1 |  |  |  |  |  | O=C(NCc1cccc(COc2ccccc2)c1)c1csc(N2CCN(c3cccc(C(F)(F)F)c3)CC2)n1 [Compound 18] |
| 6.31 | -114.29 | -2.1 |  | -22.34 | 4 |  |  |  |  |  | O=C(Nc1ccncc1)c1ccc(CNC(=O)c2csc(N3CCN(c4cccc(C(F)(F)F)c4)CC3)n2)cc1 [NCGC01396478-01] |
| 0.398 | -10.99 | 5 | 0.447 | -60.58 | -1.2 |  |  |  |  |  | O=C(NCc1ccc2c(c1)C(=O)NCC2)c1csc(N2CCN(c3cccc(C(F)(F)F)c3)CC2)n1 [NCGC01397286-01] |
| 0.0407 | -74.47 | -1.2 | 0.0188 | -99.55 | -1.1 |  |  |  |  |  | O=C(NCc1ccc2c(c1)CCC2)c1csc(N2CCN(c3cccc(C(F)(F)F)c3)CC2)n1 [NCGC01407784-01] |
| 15.8 | -93.67 | -1.3 | 0.316 | -32.49 | -1.2 |  |  |  |  |  | Cc1cc(CNC(=O)c2csc(N3CCN(c4cccc(C(F)(F)F)c4)CC3)n2)ccc1-c1ccccc1 [NCGC01407768-01] |

| AC50 [1] [µM] | Cell_Efficacy ([1]; Table S5, OE19 cells) | Cell_CC-v2 ([1]; Table S5, cellular curve class) | AC50 [2] [µM] | Efficacy ([2]; Table S5, biochemical) | CC-v2 [2, 3] | Cell_Efficacy ([1]; Table S4, OE19 cells) | Cell_CC-v2 ([1]; Table S4, cellular curve class) | Efficacy ([2]; Table S4, biochemical) | CC-v2 [2, 4] | activity in the biochemical assay ([2]; in words) | Compound |
| --- | --- | --- | --- | --- | --- | --- | --- | --- | --- | --- | --- |
| 1.97 |  |  | 1.29 |  |  | -97.51 | -1.1 | -45.52 | -1.2 |  | COc1ccc(N2CCN(c3nc(C(=O)NCc4cccc(C(F)(F)F)c4)cs3)CC2)cc1 [NCGC01211588-01] |
| 2.48 |  |  | 0.58 |  |  | -99.68 | -1.1 | -91.75 | -1.1 |  | CCc1ccc(N2CCN(c3nc(C(=O)NCc4cccc(C)c4)cs3)CC2)cc1Cl [NCGC01211398-01] |
| 8.81 |  |  | 0.41 |  |  | -81.02 | -1.3 | -99.96 | -1.1 |  | Cc1cccc(CNC(=O)c2csc(N3CCN(c4ccccc4Br)CC3)n2)c1 [Compound 9] |
| 0.0447 | -75.54 | -1.2 | 15.8 | -102.93 | -1.1 |  |  |  |  |  | N#CSc1ccc(NC(=O)c2csc(N3CCN(c4cccc(C(F)(F)F)c4)CC3)n2)c(F)c1 [NCGC01407980-01] |
| 15.7 |  |  | 5.76 |  |  | -68.34 | -1.2 | -62.10 | -1.2 |  | Cc1cccc(CNC(=O)c2csc(N3CCN(c4ccc(O)cc4)CC3)n2)c1 [NCGC01211126-01] |
| 3.51 |  |  | 0.46 |  |  | -68.27 | -1.2 | -99.36 | -1.1 | good activity | Cc1cccc(CNC(=O)c2csc(N3CCN(c4ccc(Cl)cn4)CC3)n2)c1 [Compound 11] |
| 0.0316 | -111.10 | -1.1 | 8.91 | -57.06 | -1.2 |  |  |  |  |  | C[S+](=N)([O-])c1cccc(CNC(=O)c2csc(N3CCN(c4cccc(C(F)(F)F)c4)CC3)n2)c1 (centres unmarked) [NCGC01407817-01] |
| 15.7 |  |  | 1.15 |  |  | -88.85 | -2.3 | -71.12 | -1.2 |  | COc1ccc(N2CCN(c3nc(C(=O)NCc4cccc(C)c4)cs3)CC2)cc1O [NCGC01211394-01] |
| 3.93 |  |  | 0.65 |  |  | -82.59 | -1.1 | -96.17 | -1.1 |  | Cc1cccc(CNC(=O)c2csc(N3CCN(c4ccc(OC(F)(F)F)cc4)CC3)n2)c1 [NCGC01211384-01] |
| 0.0108 | -81.94 | -1.2 | 0.0631 | -96.26 | -1.1 |  |  |  |  |  | O=C(NCc1cccc(N2CCC2=O)c1)c1csc(N2CCN(c3cccc(C(F)(F)F)c3)CC2)n1 [Compound 20] |
| 3.05 | -89.96 | -1.2 | 0.0251 | -94.50 | -1.1 |  |  |  |  |  | O=C(NCc1ccc(SC(F)(F)F)cc1)c1csc(N2CCN(c3cccc(C(F)(F)F)c3)CC2)n1 [NCGC01407771-01] |
| 0.342 | -79.11 | -1.3 | 0.0251 | -100.97 | -1.1 |  |  |  |  |  | CC(=O)c1cccc(CNC(=O)c2csc(N3CCN(c4cccc(C(F)(F)F)c4)CC3)n2)c1 [NCGC01397289-01] |
| 1.4 |  |  | 3.24 |  |  | -87.33 | -1.1 | -45.43 | -1.2 |  | Cc1cccc(CNC(=O)c2csc(N3CCN(c4ccc(OCCF)cc4)CC3)n2)c1 [NCGC01211173-01] |
| 3.13 |  |  | 0.73 |  |  | -106.55 | -1.3 | -94.33 | -1.1 |  | Cc1cccc(CNC(=O)c2csc(N3CCN(c4ccc(C(F)(F)F)cn4)CC3)n2)c1 [NCGC01210237-01] |
| 15.7 |  |  | 0.91 |  |  | -112.70 | -2.1 | -88.99 | -1.1 |  | Cc1cccc(CNC(=O)c2csc(N3CCN(c4c(F)cccc4F)CC3)n2)c1 [NCGC01211383-01] |
| 7.85 |  |  | 1.45 |  |  | -88.54 | -1.1 | -88.86 | -1.1 |  | Cc1cccc(CNC(=O)c2csc(N3CCN(c4ccccc4C)CC3)n2)c1 [NCGC01211138-01] |
